Assay results published in ChEMBL document CHEMBL1127130, “Peptidomimetic inhibitors of renin incorporating topographically modified isosteres spanning the P1( P3)-P1' sites” (Bioorg Med Chem Lett, 1993).

Molecular target: T1, Renin (Homo sapiens) (UniProt P00797)
T1 sequence (whole entry): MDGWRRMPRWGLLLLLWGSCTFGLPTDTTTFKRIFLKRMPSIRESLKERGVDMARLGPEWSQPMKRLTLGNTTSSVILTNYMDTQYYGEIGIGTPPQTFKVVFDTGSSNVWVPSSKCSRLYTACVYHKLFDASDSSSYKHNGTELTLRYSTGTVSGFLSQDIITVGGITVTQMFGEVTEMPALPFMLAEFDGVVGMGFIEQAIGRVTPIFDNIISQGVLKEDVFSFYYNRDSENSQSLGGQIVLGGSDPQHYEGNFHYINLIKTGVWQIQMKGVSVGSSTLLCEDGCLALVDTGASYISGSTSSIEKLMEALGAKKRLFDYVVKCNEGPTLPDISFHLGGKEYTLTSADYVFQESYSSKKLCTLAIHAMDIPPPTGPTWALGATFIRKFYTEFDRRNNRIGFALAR
Assay: The compound was evaluated for inhibitory activity against monkey plasma renin at concentration of […]
Assay type: cell-free
Settings: Cercopithecidae, target entry is the homologue from another species

inhibition: 29%
SMILES: C=CC[C@H](NC(=O)CNS(=O)(=O)N1CCOCC1)C(=O)N[C@@H](CC1CCC(CCC(C)C)CC1)[C@@H](O)[C@@H](O)CC(C)C (stereo partly specified)
